How the values were obtained:
[1] = system: Allodynia caused by PGE2; assay: inhibitory effect on allodynia caused by intrathecal injection of PGE2; format: in vivo, male ddY mice; settings: for % of allodynia expression, Allodynia caused by PGE2: mixture of PGE2 (10ng/body) and compound (10ng/body) injected intrathecally, mice, touch-stimulus score 5 min after administration, 100% = all subjects score 2; for anti-allodynia effect (in words): summary of tables 1, 2 and 3 (PGE2- and PGF2α-induced allodynia, mice)
Description: (1) an inhibitory effect on allodynia caused by intrathecal injection of PGE2
(§1) Five or six male ddY mice weighing 22± 2 g in a group were used. Under non-anesthesia, the mixture (5µL) of PGE2 (10ng/body) and a compound (10ng/body) with 27-gauge was injected intrathecally with stainless injection needle (0.33 mm, o.d.) between fifth and sixth vertebra lumbar of a mouse, 5. min after administration, to tail from belly side of a mouse was touch-stimulated with brush and allodynia was evaluated by score.
(§2) Score is 0: no changed, 1: escaped from touch-stimulus and squeaked, 2: escaped vigorously from touch-stimulus and squeaked loudly. When All the subjects got score 2, it was evaluated as 100% of allodynia expression.
(§3) For example, When, in six mice, score 0 is one, score 1 is three and score 2 is two, % of allodynia expression is below: ((0×1) + (1×3) + (2×2))/(6×2)× 100 = 58. 3(%) [formula]

[2] = system: Allodynia caused by PGF2α; assay: inhibitory effect on allodynia caused by intrathecal injection of PGF2α; format: in vivo, male ddY mice; settings: mixture of PGF2α (1µg/body) and compound (100ng/body) injected intrathecally, mice, touch-stimulus score 15min after administration
Description: as §1, §2, §3
(2) an inhibitory effect on allodynia caused by intrathecal injection of PGF2α
The experiment was the same as (1) with the exception that the mixture of PGF2α (1µg/body) and a compound (100ng/body) was used as administered drug and allodynia was evaluated at 15min after administration.

[3] = toxicity, maximal tolerated dose with oral administration; settings: in vivo, rat
Description: The toxicity of the compounds of the present invention is very low and therefore the compounds may be considered safe for pharmaceutical use. For example, the maximal tolerated dose with oral administration of the compounds of formula (I), (IV) and (VI) was more than 2000 mg/kg in rat.

Compound	% of allodynia expression, Allodynia caused by PGE2 [1] [%]	anti-allodynia effect (in words) [1]	% of allodynia expression, Allodynia caused by PGF2α [2] [%]	MTD [3] [mg/kg]
O=C(O)CCC/C=C\[C@H]1[C@H]2CC[C@H](C2)[C@@H]1CNS(=O)(=O)c1ccc(F)c(F)c1 [Formula(III), 6-[(1S,2S,3S,4R)-3-(3,4-difluorophenylsulfonylaminomethyl)bicyclo[2.2.1]heptan-2-yl]-5Z-hexenoic acid]	0.0 ± 0.0	effective	8.3 ± 8.3	
O=C(O)CCC/C=C\[C@H]1[C@@H]2CC[C@@H](C2)[C@@H]1CNS(=O)(=O)c1cc(F)ccc1F [Formula(IV), 6-[(1R,2S,3S,4S)-3-(2,5-difluorophenylsulfonylaminomethyl)bicyclo[2.2.1]heptan-2-yl]-5Z-hexenoic acid]	8.3 ± 8.3	effective	0.0 ± 0.0	> 2000
O=C(O)CCC/C=C\[C@H]1[C@H]2CC[C@H](C2)[C@@H]1CNS(=O)(=O)c1ccccc1Cl [comparison compound 1, 6-[(1S,2S,3S,4R)-3-(2-chlorophenylsulfonylaminomethyl)bicyclo[2.2.1]heptan-2-yl]-5Z-hexenoic acid, reference compound]	100 ± 0.0	no effect	91.7 ± 8.3	
O=C(O)CCC/C=C\[C@H]1[C@@H]2CC[C@@H](C2)[C@@H]1CNS(=O)(=O)c1ccccc1I [comparison compound 2, 6-[(1R,2S,3S,4S)-3-(2-iodophenylsulfonylaminomethyl)bicyclo[2.2.1]heptan-2-yl]-5Z-hexenoic acid, reference compound]	83.3 ± 10.5			
O=C(O)CCC/C=C\[C@H]1[C@H]2CC[C@H](C2)[C@@H]1CNS(=O)(=O)c1c(Cl)cccc1Cl [comparison compound 3, 6-[(1S,2S,3S,4R)-3-(2,6-dichlorophenylsulfonylaminomethyl)bicyclo[2.2.1]heptan-2-yl]-5Z-hexenoic acid, reference compound]	91.7 ± 8.3	no effect		
O=C(O)CCC/C=C\[C@H]1[C@@H]2CC[C@@H](C2)[C@@H]1CNS(=O)(=O)c1ccc(F)c(F)c1 [comparison compound 4, 6-[(1R,2S,3S,4S)-3-(3,4-difluorophenylsulfonylaminomethyl)bicyclo[2.2.1]heptan-2-yl]-5Z-hexenoic acid, reference compound]	75.0 ± 11.2			
CC1(C)[C@H]2C[C@H](NS(=O)(=O)Cc3ccccc3)[C@@H](C/C=C\CCCC(=O)O)[C@@H]1C2 [comparison compound 5, 7-[(1S,2S,3S,5R)-3-benzylsulfonylamino-6,6-dimethylbicyclo[3.1.1]heptan-2-yl]-5Z-heptenoic acid, reference compound]	83.3 ± 10.5		83.3 ± 10.5	
O=C(O)CCC/C=C\C[C@H]1[C@@H]2CC[C@@H](C2)[C@@H]1NS(=O)(=O)c1ccccc1 [comparison compound 6, reference compound]	90.0 ± 10.0		60.0 ± 10.0	
O=C(O)CCC/C=C\[C@H]1[C@H]2CC[C@H](C2)[C@@H]1CNS(=O)(=O)c1ccccc1I [formula (I), 6-[(1S,2S,3S,4R)-3-(2-iodophenylsulfonylaminomethyl)bicyclo[2.2.1]heptan-2-yl]-5Z-hexenoic acid]	8.3 ± 8.3		8.3 ± 8.3	> 2000
O=C(O)CCC/C=C\[C@H]1[C@H]2CC[C@H](C2)[C@@H]1CNS(=O)(=O)c1ccccc1F [formula (II), 6-[(1S,2S,3S,4R)-3-(2-fluorophenylsulfonylaminomethyl)bicyclo[2.2.1]heptan-2-yl]-5Z-hexenoic acid]	0.0 ± 0.0		8.3 ± 8.3	
COc1ccc(S(=O)(=O)N[C@H]2C[C@H]3C[C@@H]([C@@H]2C/C=C\CCCC(=O)O)C3(C)C)cc1 [formula (V), 7-[(1S,2S,3S,5R)-3-(4-methoxybenzenesulfonylamino)-6,6-dimethylbicyclo [3.1.1]heptan-2-yl]-5Z-heptenoic acid]	8.3 ± 8.3	have activity	8.3 ± 8.3	
CC1(C)[C@H]2C[C@H](NS(=O)(=O)c3ccccc3)[C@@H](C/C=C\CCCC(=O)O)[C@@H]1C2 [formula (VI), 7-[(1S,2S,3S,5R)-3-benzenesulfonylamino-6,6-dimethylbicyclo[3.1.1]heptan-2-yl]-5Z-heptenoic acid]	8.3 ± 8.3	have activity	0.0 ± 0.0	> 2000
